Laboratory results reported in ChEMBL document CHEMBL1149620, “Synthesis and biological evaluation of cyclic and branched peptide analogues as ligands for cholecystokinin type 1 receptor” (Bioorg Med Chem, 2007).
Numbered stars: 1 amine (or outer) side, 2 acyl side, 3 side chain; on linkers, the order of the positions; unused ones are H or OH. Bridge positions count the residues as written; N and C are the ends. Square brackets hold non-standard residues; d marks the D form. Peptide text beside a SMILES is read from it. X4 = O=C([C@H](CCCCNCc1ccccc1)N[*:1])[*:2]; sY = N[C@@H](Cc1ccc(OS(=O)(=O)O)cc1)C(=O)O; X3 = O=C([C@H](CCNCc1ccccc1)N[*:1])[*:2]; X2 = O=C([C@H](CNCc1ccccc1)N[*:1])[*:2]; Dap = NC[C@H](N)C(=O)O; βAla = NCCC(=O)O

target: T1, Cholecystokinin receptor type A (Homo sapiens, UniProt P32238); assay: Displacement of [111In]DTPA-Glu-Gly-[Tyr27(SO3H)]-CCK8 from human CCK1 receptor expressed in A431 cells; format: cell-based, A-431; conditions: not given
T1 sequence (P32238 whole entry): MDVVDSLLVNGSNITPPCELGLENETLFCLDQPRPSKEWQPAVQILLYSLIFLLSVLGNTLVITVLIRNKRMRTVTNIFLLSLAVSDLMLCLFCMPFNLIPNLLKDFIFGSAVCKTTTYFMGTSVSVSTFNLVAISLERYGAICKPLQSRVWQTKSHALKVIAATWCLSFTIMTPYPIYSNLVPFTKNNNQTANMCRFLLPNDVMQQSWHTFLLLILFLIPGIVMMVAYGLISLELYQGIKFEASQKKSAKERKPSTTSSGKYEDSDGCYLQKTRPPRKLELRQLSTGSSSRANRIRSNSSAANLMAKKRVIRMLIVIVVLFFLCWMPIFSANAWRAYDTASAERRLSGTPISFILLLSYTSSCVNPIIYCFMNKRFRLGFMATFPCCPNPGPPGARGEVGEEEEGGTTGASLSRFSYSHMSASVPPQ

Row | Compound | IC50 [µM]
1 | CSCC[C@@H]1NC(=O)[C@H](Cc2c[nH]c3ccccc23)NC(=O)[C@@H](NC(=O)[C@H](CCSC)NC(=O)[C@H](Cc2ccc(OS(=O)(=O)O)cc2)NC(=O)[C@@H](N)CC(=O)O)CNC(=O)[C@H](C)NC(=O)[C@H](Cc2ccccc2)NC(=O)[C@H](CC(=O)O)NC1=O (H-D[sY]M[Dap]WMDFA; lactam 4-C) | > 1000
2 | CSCC[C@@H]1NC(=O)[C@H](Cc2c[nH]c3ccccc23)NC(=O)[C@@H](NC(=O)[C@H](CCSC)NC(=O)[C@H](Cc2ccc(OS(=O)(=O)O)cc2)NC(=O)[C@@H](N)CC(=O)O)CNC(=O)CNC(=O)[C@H](Cc2ccccc2)NC(=O)[C@H](CC(=O)O)NC1=O (H-D[sY]M[Dap]WMDFG; lactam 4-C) | 26.3
3 | CSCC[C@@H]1NC(=O)[C@H](Cc2c[nH]c3ccccc23)NC(=O)[C@@H](NC(=O)[C@H](CCSC)NC(=O)[C@H](Cc2ccc(OS(=O)(=O)O)cc2)NC(=O)[C@@H](N)CC(=O)O)CNC(=O)CCNC(=O)[C@H](Cc2ccccc2)NC(=O)[C@H](CC(=O)O)NC1=O (H-D[sY]M[Dap]WMDF[βAla]; lactam 4-C) | 26.7
4 | CSCC[C@@H]1NC(=O)[C@H](Cc2c[nH]c3ccccc23)NC(=O)[C@@H](NC(=O)[C@H](CCSC)NC(=O)[C@H](Cc2ccc(OS(=O)(=O)O)cc2)NC(=O)[C@@H](N)CC(=O)O)CNC(=O)CNC(=O)[C@H](CCCCNCc2ccccc2)NC(=O)[C@H](CC(=O)O)NC1=O (H-D[sY]M[Dap]WMD[X4]G; lactam 4-C) | 24.7

Next, values leading:

Row | IC50 [µM] | Compound
5 | 7.2 | CSCC[C@@H]1NC(=O)[C@H](Cc2c[nH]c3ccccc23)NC(=O)[C@@H](NC(=O)[C@H](CCSC)NC(=O)[C@H](Cc2ccc(OS(=O)(=O)O)cc2)NC(=O)[C@@H](N)CC(=O)O)CNC(=O)CNC(=O)[C@H](C)NC(=O)[C@H](CC(=O)O)NC1=O (H-D[sY]M[Dap]WMDAG; lactam 4-C)
6 | 15 | CSCC[C@@H]1NC(=O)[C@H](Cc2c[nH]c3ccccc23)NC(=O)[C@@H](NC(=O)[C@H](CCSC)NC(=O)[C@H](Cc2ccc(OS(=O)(=O)O)cc2)NC(=O)[C@@H](N)CC(=O)O)CNC(=O)[C@H](CCCCN)NC(=O)[C@H](Cc2ccccc2)NC(=O)[C@H](CC(=O)O)NC1=O (H-D[sY]M[Dap]WMDFK; lactam 4-C)
7 | 7.46 | CSCC[C@@H]1NC(=O)[C@H](Cc2c[nH]c3ccccc23)NC(=O)[C@@H](NC(=O)[C@H](CCSC)NC(=O)[C@H](Cc2ccc(OS(=O)(=O)O)cc2)NC(=O)[C@@H](N)CC(=O)O)CNC(=O)CNC(=O)[C@H](CNCc2ccccc2)NC(=O)[C@H](CC(=O)O)NC1=O (H-D[sY]M[Dap]WMD[X2]G; lactam 4-C)
8 | 6.94 | CSCC[C@@H]1NC(=O)[C@H](Cc2c[nH]c3ccccc23)NC(=O)[C@@H](NC(=O)[C@H](CCSC)NC(=O)[C@H](Cc2ccc(OS(=O)(=O)O)cc2)NC(=O)[C@@H](N)CC(=O)O)CNC(=O)CNC(=O)[C@H](CCNCc2ccccc2)NC(=O)[C@H](CC(=O)O)NC1=O (H-D[sY]M[Dap]WMD[X3]G; lactam 4-C)

same assay, conditions: a-431

Row | IC50 [µM] | Compound
9 | 0.032 | CSCC[C@H](NC(=O)[C@H](Cc1ccc(O)cc1)NC(=O)[C@H](CC(=O)O)NC(=O)CNC(=O)CC[C@@H](C(=O)O)N(CCN(CC(=O)O)CC(=O)O)CCN(CC(=O)O)CC(=O)O)C(=O)NCC(=O)N[C@@H](Cc1c[nH]c2ccccc12)C(=O)N[C@@H](CCSC)C(=O)N[C@@H](CC(=O)O)C(=O)N[C@@H](Cc1ccccc1)C(N)=O
